# Results published in US9469627B2, “Phenyloxadiazole derivatives as PGDS inhibitors” (Sanofi, priority 2009, dated 2016).
# Experiments:
# [1] = Solid solubility (solidsol); type: physicochemical
# human h-PGDS = human h-PGDS (Homo sapiens (Human), UniProt O60760); test: Enzyme Immunoassay (EIA) method for inhibition of hematopoietic PGD2 synthase; type: biochemical; details: PGD2 formed from PGH2, measured by EIA; read-out: hPGDS EIA IC50
# Excerpt: The compounds of the present invention can be tested for enzymatic inhibiting activity against PGD2 Synthase according to either one of the following assays.
# Assay 2: Enzyme Immunoassay (EIA) Method
# • a. Preparation of 0.1M K2HPO4/KH2PO4 buffer (pH 7.4) • Prepare 0.1 M KH2PO4 from 1M KH2PO4 (Sigma, Cat# P-8709) • Prepare 0.1 M K2HPO4 from powder of K2HPO4 (Fisher, BP363-500) • Mix 0.1 M K2HPO4 with 0.1 M KH2PO4 to adjust pH to 7.4. • b. Preparation of 0.5% γ-globulin • Add 0.1 g of γ-globulin (Sigma, Cat# G-5009) to 20 mL 0.1 M K2HPO4/KH2PO4 buffer (pH 7.4) and make 1-mL/vial aliquots and store in −80° C. • c. Preparation of 100 mM GSH • Add 307 mg of GSH (Sigma, Cat# G-6529) to 10 mL 0.1 M K2HPO4/KH2PO4 buffer (pH 7.4) and store at −80° C. • d. Preparation of Reaction buffer: • 198 mL of 0.1M K2HPO4/KH2PO4 buffer (pH 7.4) • 2 mM GSH—Prepared from 100 mM GSH • 0.4 g Glycerol • 2 mL of 0.5% γ-globulin • Add 0.4 g of glycerol and 2 mL of 0.5% γ-globulin to 198 mL of 0.1 M K2HPO4/KH2PO4 • buffer (pH7.4). • Add 0.4 mL of 100 mM GSH to 19.6 mL reaction buffer before the assay (enough for two 96-well plates). • e. Preparation of FeCl2/citric acid stopping solution: (8 mg/mL FeCl2, 0.1 M citric acid) • Add 40 mg fresh FeCl2 (IGN, Cat#158046) to 5 mL 0.1 M citric acid (Sigma, Cat# C0759). • f. Preparation of MOX reagent: • 10% EtOH—Add 1 mL of EtOH to 9 mL of ultra pure H2O • Dissolve 0.1 g of methoxylamine (Cayman, Cat#400036/) in 10% EtOH (10 mL). • Add 0.82 g of sodium acetate (Cayman, Cat#400037) to MOX solution and dissolve. II. Materials and Method • Dimethylsulfoxide (DMSO; Sigma; Cat# D2650) • Prostaglandin D2-MOX express EIA kit (Caymen Chemical, Catalog No. 500151)
# Before the assay, cool down 10 mL of acetone in polypropylene tubes and empty 96 well plates in ice. All the procedures except compound dilution are performed on ice.
# • 1. Dilute compound in DMSO
# • 2. […] Total PGD2 levels (pg/mL) were determined in the samples by EIA kits (Cayman Chemical, Catalog No. 500151) • Calculate amount of PGD2 as below • Calculated % Positive control according to the equation below; […]
# human h-PGDS, sequence (O60760 whole entry): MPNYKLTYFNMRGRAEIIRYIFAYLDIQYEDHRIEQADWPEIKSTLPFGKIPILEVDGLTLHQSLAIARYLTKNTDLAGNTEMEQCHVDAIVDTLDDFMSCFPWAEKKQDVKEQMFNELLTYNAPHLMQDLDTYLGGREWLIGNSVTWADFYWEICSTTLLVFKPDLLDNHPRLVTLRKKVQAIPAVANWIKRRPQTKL
solidsol [1] [µM],IC50 (human h-PGDS) [nM],SMILES
135.9,12,"CC(C)(O)c1nc(-c2cccc(CNC(=O)c3cnc(-c4ccccn4)nc3)c2)no1 [Example 1, 2-Pyridin-2-yl-pyrimidine-5-carboxylic acid 3-[5-(1-hydroxy-1-methyl-ethyl)-1,2,4-oxadiazol-3-yl]-benzylamide]"
854.9,11,"C[C@H](NC(=O)c1cnc(-c2ccccn2)nc1)c1cccc(-c2noc(C(C)(C)O)n2)c1 [Example 2, 2-Pyridin-2-yl-pyrimidine-5-carboxylic acid ((S)-1-{3-[5-(1-hydroxy-1-methyl-ethyl)-1,2,4-oxadiazol-3-yl]-phenyl}-ethyl)-amide]"
29.4,26,"C[C@@H](NC(=O)c1cnc(-c2ccccn2)nc1)c1cccc(-c2noc(C(C)(C)O)n2)c1 [Example 3, 2-Pyridin-2-yl-pyrimidine-5-carboxylic acid ((R)-1-{3-[5-(1-hydroxy-1-methyl-ethyl)-1,2,4-oxadiazol-3-yl]-phenyl}-ethyl)-amide]"
